According to patent US7396837B2, “Antitumoral analogs of lamellarins” (Pharma Mar, S.A.U., priority 2002, dated 2008):

Columns and labels:
Format in all cases: cell-based
SK-MEL-28 = experiment: SRB colorimetric cell growth inhibition assay, SK-MEL-28; conditions: Homo sapiens, SK-MEL-28, MEL-28; for GI50: GI=growth inhibition, read-out: GI50 MEL-28; for CC50: LC=cell killing (cytotoxic effect), read-out: LC50 MEL-28; for IC (TGI): TGI=total growth inhibition (cytostatic effect), read-out: TGI MEL-28
Summary of the method: (§1)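 Human tumour cells continuously exposed to compound in 96-well culture; growth and viability quantified colorimetrically by sulforhodamine B staining. Mean ± SD from triplicate wells; GI (growth inhibition), TGI (total growth inhibition, cytostatic) and LC (cell killing, cytotoxic) parameters derived.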

SK-BR-3 = experiment: SRB colorimetric cell growth inhibition assay, SK-BR-3; conditions: Homo sapiens, SK-BR-3, SK-BR-3; for GI50: GI=growth inhibition, read-out: GI50 SK-BR-3; for CC50: LC=cell killing (cytotoxic effect), read-out: LC50 SK-BR-3; for IC (TGI): TGI=total growth inhibition (cytostatic effect), read-out: TGI SK-BR-3
Summary of the method: as §1

IGROV-ET = experiment: SRB colorimetric cell growth inhibition assay, IGROV-ET (ET-743 resistant); conditions: Homo sapiens, IGROV-ET; for GI50: GI=growth inhibition, read-out: GI50 IGROV-ET; for CC50: LC=cell killing (cytotoxic effect), read-out: LC50 IGROV-ET; for IC (TGI): TGI=total growth inhibition (cytostatic effect), read-out: TGI IGROV-ET
Summary of the method: as §1

K-562 = experiment: SRB colorimetric cell growth inhibition assay, K-562; conditions: Homo sapiens, K562, K-562; for GI50: GI=growth inhibition, read-out: GI50 K-562; for CC50: LC=cell killing (cytotoxic effect), read-out: LC50 K-562; for IC (TGI): TGI=total growth inhibition (cytostatic effect), read-out: TGI K-562
Summary of the method: as §1

DU-145 = experiment: SRB colorimetric cell growth inhibition assay, DU-145; conditions: Homo sapiens, DU-145, DU-145; for GI50: GI=growth inhibition, read-out: GI50 DU-145; for CC50: LC=cell killing (cytotoxic effect), read-out: LC50 DU-145; for IC (TGI): TGI=total growth inhibition (cytostatic effect), read-out: TGI DU-145
Summary of the method: as §1

PANC-1 = experiment: SRB colorimetric cell growth inhibition assay, PANC-1; conditions: Homo sapiens, PANC-1, PANC-1; for GI50: GI=growth inhibition, read-out: GI50 PANC-1; for CC50: LC=cell killing (cytotoxic effect), read-out: LC50 PANC-1; for IC (TGI): TGI=total growth inhibition (cytostatic effect), read-out: TGI PANC-1
Summary of the method: as §1

A-549 = experiment: SRB colorimetric cell growth inhibition assay, A-549; conditions: Homo sapiens, A549, A-549; for GI50: GI=growth inhibition, read-out: GI50 A-549; for CC50: LC=cell killing (cytotoxic effect), read-out: LC50 A-549; for IC (TGI): TGI=total growth inhibition (cytostatic effect), read-out: TGI A-549
Summary of the method: as §1

LNCaP = experiment: SRB colorimetric cell growth inhibition assay, LNCaP; conditions: Homo sapiens, LNCaP, LN-caP; for GI50: GI=growth inhibition, read-out: GI50 LN-caP; for CC50: LC=cell killing (cytotoxic effect), read-out: LC50 LN-caP; for IC (TGI): TGI=total growth inhibition (cytostatic effect), read-out: TGI LN-caP
Summary of the method: as §1

LoVo = experiment: SRB colorimetric cell growth inhibition assay, LoVo; conditions: Homo sapiens, LoVo; for GI50: GI=growth inhibition, read-out: GI50 LOVO; for CC50: LC=cell killing (cytotoxic effect), read-out: LC50 LOVO; for IC (TGI): TGI=total growth inhibition (cytostatic effect), read-out: TGI LOVO
Summary of the method: as §1

HeLa = experiment: SRB colorimetric cell growth inhibition assay, HeLa; conditions: Homo sapiens, HeLa; for GI50: GI=growth inhibition, read-out: GI50 HELA; for CC50: LC=cell killing (cytotoxic effect), read-out: LC50 HELA; for IC (TGI): TGI=total growth inhibition (cytostatic effect), read-out: TGI HELA
Summary of the method: as §1

HT-29 = experiment: SRB colorimetric cell growth inhibition assay, HT-29; conditions: Homo sapiens, HT-29, HT-29; for GI50: GI=growth inhibition, read-out: GI50 HT-29; for CC50: LC=cell killing (cytotoxic effect), read-out: LC50 HT-29; for IC (TGI): TGI=total growth inhibition (cytostatic effect), read-out: TGI HT-29
Summary of the method: as §1

LoVo-Dox = experiment: SRB colorimetric cell growth inhibition assay, LoVo-Dox (MDR); conditions: Homo sapiens, LOVO-DOX; for GI50: GI=growth inhibition, read-out: GI50 LOVO-DOX; for CC50: LC=cell killing (cytotoxic effect), read-out: LC50 LOVO-DOX; for IC (TGI): TGI=total growth inhibition (cytostatic effect), read-out: TGI LOVO-DOX
Summary of the method: as §1

HeLa-APL = experiment: SRB colorimetric cell growth inhibition assay, HeLa-APL (aplidine resistant); conditions: Homo sapiens, HELA-APL; for GI50: GI=growth inhibition, read-out: GI50 HELA-APL; for CC50: LC=cell killing (cytotoxic effect), read-out: LC50 HELA-APL; for IC (TGI): TGI=total growth inhibition (cytostatic effect), read-out: TGI HELA-APL
Summary of the method: as §1

IGROV = experiment: SRB colorimetric cell growth inhibition assay, IGROV; conditions: Homo sapiens, IGROV; for GI50: GI=growth inhibition, read-out: GI50 IGROV; for CC50: LC=cell killing (cytotoxic effect), read-out: LC50 IGROV; for IC (TGI): TGI=total growth inhibition (cytostatic effect), read-out: TGI IGROV
Summary of the method: as §1

## COc1cc2c(cc1OC)-c1c(-c3ccc(OC(=O)CCCC[C@@H]4SC[C@@H]5NC(=O)N[C@@H]54)c(OC)c3)c3c4cc(OC)c(OC(=O)CCCC[C@@H]5SC[C@@H]6NC(=O)N[C@@H]65)cc4oc(=O)c3n1CC2 [Compound 47]
SK-MEL-28
  GI50: 2.07 µM
  CC50: 10.3 µM
  IC (TGI): 10.3 µM
SK-BR-3
  GI50: 2.29 µM
  CC50: 10.3 µM
  IC (TGI): 6.01 µM
IGROV-ET
  GI50: 2.07 µM
  CC50: 10.3 µM
  IC (TGI): 10.3 µM
K-562
  GI50: 0.564 µM
  CC50: 10.3 µM
  IC (TGI): 3.74 µM
DU-145
  GI50: 1.08 µM
  CC50: 10.3 µM
  IC (TGI): 4.61 µM
PANC-1
  GI50: 3.86 µM
  CC50: 10.3 µM
  IC (TGI): 10.3 µM
A-549
  GI50: 3.26 µM
  CC50: 10.3 µM
  IC (TGI): 10.3 µM
LNCaP
  GI50: 0.0884 µM
  CC50: 5.87 µM
  IC (TGI): 1.59 µM
LoVo
  GI50: 3.97 µM
  CC50: 10.3 µM
  IC (TGI): 10.3 µM
HeLa
  GI50: 0.537 µM
  CC50: 10.3 µM
  IC (TGI): 4.79 µM
HT-29
  GI50: 1.25 µM
  CC50: 10.3 µM
  IC (TGI): 10.3 µM
LoVo-Dox
  GI50: 8.09 µM
  CC50: 10.3 µM
  IC (TGI): 10.3 µM
HeLa-APL
  GI50: 5.75 µM
  CC50: 10.3 µM
  IC (TGI): 10.3 µM
IGROV
  GI50: 0.764 µM
  CC50: 10.3 µM
  IC (TGI): 10.3 µM

## COc1cc(-c2c3c4cc(OC)c(O)cc4oc(=O)c3n3ccc4c([N+](=O)[O-])cccc4c23)ccc1O [Compound 53]
SK-MEL-28
  GI50: 4.03 µM
  CC50: 20.1 µM
  IC (TGI): 15.5 µM
SK-BR-3
  GI50: 1.99 µM
  CC50: 20.1 µM
  IC (TGI): 9.49 µM
IGROV-ET
  GI50: 20.1 µM
  CC50: 20.1 µM
  IC (TGI): 20.1 µM
K-562
  GI50: 10.3 µM
  CC50: 20.1 µM
  IC (TGI): 20.1 µM
DU-145
  GI50: 4.53 µM
  CC50: 20.1 µM
  IC (TGI): 12.3 µM
PANC-1
  GI50: 1.03 µM
  CC50: 20.1 µM
  IC (TGI): 9.67 µM
A-549
  GI50: 5.66 µM
  CC50: 20.1 µM
  IC (TGI): 20.1 µM
LNCaP
  GI50: 4.01 µM
  CC50: 20.1 µM
  IC (TGI): 9.75 µM
LoVo
  GI50: 11.1 µM
  CC50: 20.1 µM
  IC (TGI): 20.1 µM
HeLa
  GI50: 0.59 µM
  CC50: 20.1 µM
  IC (TGI): 12.3 µM
HT-29
  GI50: 2.17 µM
  CC50: 20.1 µM
  IC (TGI): 20.1 µM
LoVo-Dox
  GI50: 20.1 µM
  CC50: 20.1 µM
  IC (TGI): 20.1 µM
HeLa-APL
  GI50: 20.1 µM
  CC50: 20.1 µM
  IC (TGI): 20.1 µM
IGROV
  GI50: 1.38 µM
  CC50: 20.1 µM
  IC (TGI): 20.1 µM
